For 12 molecules, TGI results are on record in PubChem BioAssay (NCI).

Holding throughout (assay): NCI tumour cell line growth inhibition, 48 h
Test [1] deals with SNB-19 CNS.
The subject of test [2] is ACHN renal.
Test [3] has as its system HOP-92 NSCLC.
Test [4] concerns KM12 colon.
The subject of test [5] is HS 578T breast.
For test [6], the system named is HCC-2998 colon.
Test [7] has as its system A549 NSCLC.
The subject of test [8] is SR leukemia.
In test [9] the test system is PC-3 prostate.
For test [10], the system named is COLO 205 colon.

Each structure is given as a SMILES string.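 Tested at 5 concentrations; 48 h exposure; 96-well plates; endpoints linearly interpolated, else capped at highest concentration. TGI denotes the concentration required for complete inhibition of growth.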

Regarding `OC1(C2(c3ccc(Cl)cc3)CCCC2)c2ccccc2C2=NCCN21` (stereo not given), the TGI was 30.5 µM in test [1]; 30.5 µM in test [2]; 28.6 µM in [3]; 36.3 µM in test [4]; above 100 µM in test [5]; 4 µM in test [6]. The TGI was determined as 31.3 µM in [7], 37.9 µM in [8], 25.1 µM in test [9] and 23.9 µM in test [10].

Turning to `C=COC(=O)N1C2CCCC(Cl)(C(C)=O)C1CC2` (stereo not given), the TGI in [1], in test [2], in test [3], in test [4], in test [5] and in test [6] was above 100 µM in each case. The TGI in test [7], in test [8], in [9] and in test [10] was above 100 µM each time.

`CCSc1nc(C)nc2c1sc1nc3ccccc3n12`: the TGI in test [1] was above 100 µM; in test [2], above 100 µM; in test [3], above 100 µM; in test [4], above 100 µM; in test [5], 92.9 µM; in [6], above 100 µM. Moreover, the TGI in test [7], in test [8], in test [9] and in test [10] was above 100 µM throughout.

In the case of `COc1cc2c3c(c1OC)C(=O)C(=O)C1=C3N(CCC1)CC2`, the TGI in [1] is above 100 µM; in test [2], above 100 µM; in [3], 60.4 µM; in test [4], 44.5 µM; in test [5], 47.6 µM; in test [6], above 100 µM. Further, the TGI in test [7] is above 100 µM; in [8] it was 55.5 µM; in test [9] it was above 100 µM; in test [10] it was 35.3 µM.

As for `COc1ccc(C(=O)N(Cc2cccnc2)C(=S)N(Cc2cccnc2)C(=O)c2ccc(OC)cc2)cc1`, the TGI in test [1], in test [2], in test [3], in [4], in test [5] and in [6] was above 100 µM in each case. For the same molecule, the TGI in [7], in test [8], in test [9] and in test [10] was above 100 µM in each case.

On to `COc1cc2c3cc1Oc1c(OC)c(OC)cc4c1C(Cc1ccc(O)c(c1)-c1cc(ccc1OC)CC3N(C)CC2)N(C)CC4` (stereo not given), for which the TGI came out at 56.1 µM in test [1]; 56.8 µM in test [2]; 53.7 µM in test [3]; 37.6 µM in test [4]; 59.1 µM in test [5]; 37.9 µM in test [6]. In addition, the TGI was above 100 µM in test [7], 28.4 µM in test [8], above 100 µM in [9] and above 100 µM in test [10].

Consider `COc1ccc2[nH]c3c(C)c4ncccc4c(C)c3c2c1`, for which the TGI in [1] was above 10 µM; in test [2] it was above 10 µM; in [3], above 10 µM; in [4], 3.87 µM; in test [5], above 10 µM; in test [6] it was above 10 µM. The TGI in test [7] is 4.88 µM; in test [8] it was above 10 µM; in test [9] it was above 10 µM; in test [10] it was above 10 µM.

Consider `CC1(C)CC[C@]2(C(=O)O)CC[C@]3(C)C(=CC[C@@H]4[C@@]5(C)CC[C@H](OC6OC(CO)C(O)C(O)C6O)C(C)(C)[C@@H]5CC[C@]43C)[C@@H]2C1` (stereo not given in full), for which the TGI in [1] worked out at 2.89 µM; in test [2] it was 3.04 µM; in [3], 3.06 µM; in test [4], 2.86 µM; in test [5] it was 4.74 µM; in [6], 3.18 µM. In addition, the TGI in test [7] was determined as 3.08 µM; in test [8] it was 5.53 µM; in test [9], 2.96 µM; in [10], 3.21 µM.

For the molecule `CNC(=O)OCC1=C(COC(=O)NC)C(C)N(c2ccccc2)C1` (stereo not given), the TGI is above 100 µM in test [1]; above 100 µM in [2]; above 100 µM in test [3]; above 100 µM in test [4]; above 100 µM in [5]; 80.3 µM in test [6]. For the same molecule, the TGI in test [7] is above 100 µM; in test [8], 67.4 µM; in [9], above 100 µM; in [10] it was 48.5 µM.

As to `CCNC1=C(NC(=O)CCl)C(=O)c2ccccc2C1=O`, the TGI in [1] was 54.5 µM; in test [2], 31.9 µM; in [3] it was 36.2 µM; in test [4], 32 µM; in test [5], 60.6 µM; in test [6], above 10 µM. Besides, the TGI in [7] is 99.6 µM; in test [8] it was 80.3 µM; in [9], 30.3 µM; in test [10], above 10 µM.

On to `NC(Cc1ccc(O)cn1)C(=O)O` (stereo not given), for which the TGI in test [1], in test [2], in [3], in test [4], in test [5] and in test [6] was above 100 µM each time. For the same molecule, the TGI in [7], in test [8], in test [9] and in [10] was above 100 µM throughout.

As to `C[C@H](CO)C1=CC(C#C[Si](C)(C)C)N(C(=O)Oc2ccccc2)c2ccccc21` (stereo not given in full), the TGI in [1] is 29.8 µM; in test [2] it was 26.8 µM; in test [3] it was 28.7 µM; in [4] it was 21.8 µM; in test [5] it was 26.4 µM; in test [6], 30.6 µM. Besides, the TGI is 26.8 µM in test [7], 82.5 µM in test [8], 24 µM in [9] and 24.3 µM in test [10].
